Target: T1, CXCR7 (Homo sapiens, UniProt P25106)
T1 construct: host or cells: CHO-K1 (PathHunter CHO-K1 CXCR7 b-arrestin cell line, stably transfected)
Assay: PathHunter CHO-K1 CXCR7 b-arrestin recruitment assay (CXCR7 agonistic activity)
Assay type: cell-based
Conditions: PathHunter CHO-K1 CXCR7 b-arrestin cell line
Procedure, shortened: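 Stable CHO-K1 line with C-terminally ProLink-tagged CXCR7 and β-arrestin 2–EA fusion; β-arrestin recruitment restores β-gal activity, read by chemiluminescence after 1 h RT detection. Cells seeded 24 h, starved in OPTIMEM 3–4 h, exposed to compounds 90 min at 37 °C in HBSS/HEPES/BSA. Geometric-mean EC50 from repeated measurements.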

T1 sequence (P25106 whole entry): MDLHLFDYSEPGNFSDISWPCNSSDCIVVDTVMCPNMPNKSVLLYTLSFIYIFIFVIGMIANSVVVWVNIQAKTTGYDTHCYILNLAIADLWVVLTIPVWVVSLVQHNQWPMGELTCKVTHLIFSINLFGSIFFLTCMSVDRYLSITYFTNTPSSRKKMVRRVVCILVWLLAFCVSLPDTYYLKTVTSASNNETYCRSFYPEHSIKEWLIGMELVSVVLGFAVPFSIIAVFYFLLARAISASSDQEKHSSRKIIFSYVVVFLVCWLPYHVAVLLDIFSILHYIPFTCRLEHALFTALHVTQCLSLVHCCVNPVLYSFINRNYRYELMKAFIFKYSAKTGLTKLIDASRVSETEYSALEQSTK
T1 sequence (P32121 whole entry partner): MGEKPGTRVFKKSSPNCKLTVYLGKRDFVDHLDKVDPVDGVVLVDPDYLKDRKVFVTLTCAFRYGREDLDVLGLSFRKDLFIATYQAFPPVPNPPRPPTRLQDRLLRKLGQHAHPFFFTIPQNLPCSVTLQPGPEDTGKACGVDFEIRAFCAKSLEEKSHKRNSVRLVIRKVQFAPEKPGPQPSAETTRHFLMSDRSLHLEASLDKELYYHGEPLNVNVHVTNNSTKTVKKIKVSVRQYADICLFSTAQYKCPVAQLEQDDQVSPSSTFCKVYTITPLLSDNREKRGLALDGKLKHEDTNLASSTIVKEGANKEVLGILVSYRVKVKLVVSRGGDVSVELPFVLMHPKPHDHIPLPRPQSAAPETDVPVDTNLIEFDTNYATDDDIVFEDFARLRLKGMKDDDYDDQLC

Row | Compound | EC50 [nM]
1 | CC(C)(O)CN(Cc1ncccc1Br)C(=O)CNc1cccc2c1C(C)(C)CN(CC1CC1)C2 [Example 576, N-(3-Bromo-pyridin-2-ylmethyl)-2-(2-cyclopropylmethyl-4,4-dimethyl-1,2,3,4-tetrahydro-isoquinolin-5-ylamino)-N-(2-hydroxy-2-methyl-propyl)-acetamide] | 6
2 | O=C(CNc1cccc2c1CCN(CC1CC1)C2)N(CCNCC(F)(F)F)Cc1ccccc1C(F)(F)F [Example 434, 2-(2-Cyclopropylmethyl-1,2,3,4-tetrahydro-isoquinolin-5-ylamino)-N-[2-(2,2,2-trifluoro-ethylamino)-ethyl]-N-(2-trifluoromethyl-benzyl)-acetamide] | 20
3 | COC(=O)CN1CCc2c(cccc2NCC(=O)N(CCN(C)C)Cc2ncccc2C(F)(F)F)C1 [Example 370, [5-({[(2-Dimethylamino-ethyl)-(3-trifluoromethyl-pyridin-2-ylmethyl)-carbamoyl]-methyl}-amino)-3,4-dihydro-1H-isoquinolin-2-yl]-acetic acid methyl ester] | 40
4 | CCCOC(=O)N1CCc2c(cccc2NCC(=O)N(CCNC)Cc2ncccc2C(F)(F)F)C1 [compound 423] | 79
5 | CN(C)CCN(Cc1ccccc1OC(F)(F)F)C(=O)CNc1cccc2c1CCN(CC1CC1)C2 [Example 227, 2-(2-Cyclopropylmethyl-1,2,3,4-tetrahydro-isoquinolin-5-ylamino)-N-(2-dimethylamino-ethyl)-N-(2-trifluoromethoxy-benzyl)-acetamide] | 6
6 | O=C(CNc1cccc2c1CCN(CC1CC1)C2)N(CCN1CCCC1)Cc1ccc(F)cc1Cl [Example 50, N-(2-Chloro-4-fluoro-benzyl)-2-(2-cyclopropylmethyl-1,2,3,4-tetrahydro-isoquinolin-5-ylamino)-N-(2-pyrrolidin-1-yl-ethyl)-acetamide] | 6
7 | CN(C)CCN(Cc1ncccc1Cl)C(=O)CNc1cccc2c1CN(CC1CC1)CC2 [compound 485, N-(3-Chloro-pyridin-2-ylmethyl)-2-(2-cyclopropylmethyl-1,2,3,4-tetrahydro-isoquinolin-8-ylamino)-N-(2-dimethylamino-ethyl)-acetamide] | 8
8 | CN(C)CCN(Cc1ncccc1C(F)(F)F)C(=O)CNc1cccc2c1CCN(C1COC1)C2 [Example 367, N-(2-Dimethylamino-ethyl)-2-(2-oxetan-3-yl-1,2,3,4-tetrahydro-isoquinolin-5-ylamino)-N-(3-trifluoromethyl-pyridin-2-ylmethyl)-acetamide] | 115
9 | CCN1CCc2cccc(NCC(=O)N(CCN(C)C)Cc3ccc(Cl)cn3)c2C1 [compound 530] | 174
10 | O=C(CNc1cccc2c1CCN(CC1CC1)C2)N(CCc1ccc(F)cc1)Cc1ccccc1 [Example 75, N-Benzyl-2-(2-cyclopropylmethyl-1,2,3,4-tetrahydro-isoquinolin-5-ylamino)-N-[2-(4-fluoro-phenyl)-ethyl]-acetamide] | 137
11 | O=C(CNc1cccc2c1CN(CC1CC1)CC2)N(CCN1CC(F)(F)C1)Cc1ccccc1C(F)(F)F [compound 484] | 79
12 | CC(C)(O)CN(Cc1ncccc1Cl)C(=O)CNc1cccc2c1CN(CC1CC1)CC2 [compound 487] | 100
13 | CNCCN(Cc1ccccc1C(F)(F)F)C(=O)CNc1cccc2c1CCN(C(=O)OCC(C)(C)C)C2 [compound 402] | 198
14 | COCCN1CCc2c(CCC(=O)N(CCC(C)(C)C)Cc3ncccc3C)cccc2C1 [Example 338, N-(3,3-Dimethyl-butyl)-3-[2-(2-methoxy-ethyl)-1,2,3,4-tetrahydro-isoquinolin-5-yl]-N-(3-methyl-pyridin-2-ylmethyl)-propionamide] | 279
15 | CN(C)CCN(Cc1ccccc1C(F)(F)F)C(=O)CNc1cccc2c1CN(CC1CCCCC1)CC2 [compound 554, 2-(2-Cyclohexylmethyl-1,2,3,4-tetrahydro-isoquinolin-8-ylamino)-N-(2-dimethylamino-ethyl)-N-(2-trifluoromethyl-benzyl)-acetamide] | 5
16 | CCN1CCc2cccc(NCC(=O)N(CCN(C)C)Cc3ccc(C)cc3)c2C1 [compound 496] | 79
17 | CCCCNC(=O)N1CCc2c(cccc2NCC(=O)N(CCNC)Cc2ncccc2C(F)(F)F)C1 [compound 431] | 120
18 | CCN(C)CCN(Cc1ccccc1C(F)(F)F)C(=O)CNc1cccc2c1CCN(CC1CC1)C2 [Example 231, 2-(2-Cyclopropylmethyl-1,2,3,4-tetrahydro-isoquinolin-5-ylamino)-N-[2-(ethyl-methyl-amino)-ethyl]-N-(2-trifluoromethyl-benzyl)-acetamide] | 1
19 | CCC(=O)N1CCc2c(CCC(=O)N(CCN(C)C)Cc3ccccc3)cccc2C1 [Example 162, N-Benzyl-N-(2-dimethylamino-ethyl)-3-(2-propionyl-1,2,3,4-tetrahydro-isoquinolin-5-yl)-propionamide] | 46
20 | CC(C)(C)OC(=O)N1CCC(N(Cc2ccccc2C(F)(F)F)C(=O)CNc2cccc3c2CCN(CC2CC2)C3)CC1 [Example 252, 4-[[2-(2-Cyclopropylmethyl-1,2,3,4-tetrahydro-isoquinolin-5-ylamino)-acetyl]-(2-trifluoromethyl-benzyl)-amino]-piperidine-1-carboxylic acid tert-butyl ester] | 426
21 | CNCCN(Cc1ccccc1C(F)(F)F)C(=O)CNc1cccc2c1CC(=O)N(CC(C)C)C2 [compound 383] | 51
22 | N#CCCN(Cc1ccccc1)C(=O)CNc1cccc2c1CCN(CC1CC1)C2 [Example 67, N-Benzyl-N-(2-cyano-ethyl)-2-(2-cyclopropylmethyl-1,2,3,4-tetrahydro-isoquinolin-5-ylamino)-acetamide] | 115
23 | CN1CCC(N(Cc2ccccc2C(F)(F)F)C(=O)CNc2cccc3c2CCN(CC2CC2)C3)CC1 [Example 105, 2-(2-Cyclopropylmethyl-1,2,3,4-tetrahydro-isoquinolin-5-ylamino)-N-(1-methyl-piperidin-4-yl)-N-(2-trifluoromethyl-benzyl)-acetamide] | 9
24 | CN1CCC(N(Cc2ccccc2)C(=O)CNc2cccc3c2CCN(CC2CC2)C3)C1 (racemic) [Example 180, rac-N-Benzyl-2-(2-cyclopropylmethyl-1,2,3,4-tetrahydro-isoquinolin-5-ylamino)-N-(1-methyl-pyrrolidin-3-yl)-acetamide] | 8
25 | C#CCN(C)CCN(Cc1ccccc1C(F)(F)F)C(=O)CNc1cccc2c1CCN(CC1CC1)C2 [Example 246, 2-(2-Cyclopropylmethyl-1,2,3,4-tetrahydro-isoquinolin-5-ylamino)-N-[2-(methyl-prop-2-ynyl-amino)-ethyl]-N-(2-trifluoromethyl-benzyl)-acetamide] | 14
26 | CN(C)CCN(Cc1ccccc1C(F)(F)F)C(=O)/C=C/c1cccc2c1CCN(CC1CC1)C2 [compound 150, (E)-3-(2-Cyclopropylmethyl-1,2,3,4-tetrahydro-isoquinolin-5-yl)-N-(2-dimethylamino-ethyl)-N-(2-trifluoromethyl-benzyl)-acrylamide] | 1
27 | CC(C)CN1Cc2cccc(NCC(=O)N(CCN(C)C)Cc3ncccc3C(F)(F)F)c2CC1=O [Example 313, N-(2-Dimethylamino-ethyl)-2-(2-isobutyl-3-oxo-1,2,3,4-tetrahydro-isoquinolin-5-ylamino)-N-(3-trifluoromethyl-pyridin-2-ylmethyl)-acetamide] | 31

From patent US9920010B2, “CXCR7 receptor modulators” (IDORSIA PHARMACEUTICALS LTD, priority 2013, dated 2018)
